According to patent US11447485B2, “Class of bifunctional compounds with quanternary ammonium salt structure” (Beijing Showby Pharmaceutical Co., Ltd., priority 2016, dated 2022):
Read-outs that look alike come from different tables or passages of the source.

Assays:
[1] = molecular target: T1, human recombinant β2 adrenoceptor (Homo sapiens, UniProt P07550); experiment: cell-based; format: cell-based; conditions: EC50 (β1)/EC50 (β2)
T1 construct: expressed in transfected cells

[2] = test system: tracheal smooth muscle of guinea pig; experiment: Relaxation of CCh-induced constriction of isolated guinea pig tracheal smooth muscle (Experimental Example 1); conditions: for EC50: Cavia porcellus, read-out: EC50 (μM) ± SD
Procedure: The upper end was connected with a muscle tension transducer, and the specimen was given a resting tension of 1.0 g. Muscle tension changes were recorded, nutrient solution was changed every 20 min, and the experiment was started after 60 min of equilibrium.
Administration Method: After the trachea flake were stabilized, 3×10^−6 mol/L CCh was added to the bath. […] Diastolic condition of the trachea flake was observed. If no response occurred (below the threshold concentration), the next dosage was continued to be added in the order. If any response occurred, the next dosage was added until its diastolic platform was reached. The above operation was repeated until the shrink curve reached the minimum. Finally, 10^−6 mol/L isoproterenol was added to establish maximum relaxation, and the curve was recorded.
Statistical Methods: Statistics was performed using the Sigma Stat statistical software package, the data was analyzed by using the variance analysis. Student-Newman-Keuls (SNK) test was used in comparison among multiple sample averages number. The statistical test level was α=0.05 (bilateral).

T1 sequence (P07550 whole entry): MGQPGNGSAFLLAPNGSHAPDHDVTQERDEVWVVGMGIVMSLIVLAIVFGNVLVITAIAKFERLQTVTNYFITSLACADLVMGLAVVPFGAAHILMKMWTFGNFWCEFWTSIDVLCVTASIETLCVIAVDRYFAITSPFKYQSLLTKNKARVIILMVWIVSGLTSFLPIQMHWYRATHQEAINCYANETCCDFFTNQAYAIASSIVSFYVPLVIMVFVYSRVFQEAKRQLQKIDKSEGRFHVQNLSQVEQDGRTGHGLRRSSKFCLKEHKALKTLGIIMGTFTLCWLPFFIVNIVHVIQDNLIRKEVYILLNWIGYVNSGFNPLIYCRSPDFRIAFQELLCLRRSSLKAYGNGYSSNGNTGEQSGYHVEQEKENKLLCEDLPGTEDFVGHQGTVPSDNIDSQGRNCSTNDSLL

| SMILES | sel (β1/β2) [1] | Onset time (min) ± SD ([2]; CCh 3 × 10^−6 mol/L, in vitro) [min] | Time for eliminating inhibition effect (min) ([2]; CCh 3 × 10^−6 mol/L, in vitro) | EC50 [2] [µM] | Time for eliminating inhibition effect ([2]; CCh 3 × 10^−6 mol/L, in vitro) [min] | Time for eliminating inhibition effect (min) ([2]; CCh 3 × 10^−6 mol/L, in vitro, listed as ipratropium bromide) | EC50 ([2]; constriction induced by CCh 3 × 10^−6 mol/L, in vitro) [µM] |
| --- | --- | --- | --- | --- | --- | --- | --- |
| O=C1COc2c(cc(O)cc2[C@@H](O)CNCCOCc2ccc(COCC[N+]34CCC(CC3)[C@@H](OC[C@@](O)(c3ccccc3)C3CCCC3)C4)cc2)N1 [Compound 118, (R)-(−)-3-[(R)-2-hydroxy-2-cyclopentyl-2-phenyl]ethoxy-1-{2-[4-(2-{(R)-[2-hydroxy-2-(6-hydroxy-2H-1,4-benzoxazin-3(4H)-one-8-yl)]ethylamino}ethoxymethyl)benzyloxy]ethyl}-1-azabicyclo[2,2,2]octylonium bromide] | 23.8 | 6.24 ± 0.41 | more than 300 min | 0.0241 ± 0.012 |  |  |  |
| CC(C)[N+]1(C)[C@@H]2CC[C@H]1C[C@@H](OC(=O)C(CO)c1ccccc1)C2 (some centres unmarked) [Ipratropium bromide, ipratropium bromide, reference compound] |  | 6.82 ± 0.28 |  |  | 185 | short duration of action | 0.0361 ± 0.0046 |
| CC(C)(NC[C@H](O)c1ccc(O)c2[nH]c(=O)ccc12)c1ccc(OCCC[N+]23CCC(CC2)[C@@H](OC[C@@](O)(c2ccccc2)C2CCCC2)C3)cc1 [Compound 84] | 238.8 | 6.78 ± 0.18 | more than 300 min | 0.0251 ± 0.0086 |  |  |  |
| OCc1cc([C@@H](O)CNCCc2ccc(OCC[N+]34CCC(CC3)[C@@H](OC[C@@](O)(c3ccccc3)C3CCCC3)C4)cc2)ccc1O [Compound 57, (R)-(−)-3-[(R)-2-hydroxy-2-cyclopentyl-2-phenyl)]ethoxy-1-{2-[4-(2-{[(R)-[2-(3-hydroxymethyl-4-hydroxy)phenyl-2-hydroxy]ethylamino}ethyl)phenoxy]ethyl}-1-azabicyclo[2,2,2]octylonium bromide] | 68.8 | 6.03 ± 0.18 | more than 300 min | 0.0265 ± 0.016 |  |  |  |
| CCC(NC[C@H](O)c1ccc(O)c2[nH]c(=O)ccc12)c1ccc(OCCC[N+]23CCC(CC2)[C@@H](OC[C@@](O)(c2ccccc2)C2CCCC2)C3)cc1 (stereo partly drawn) [Compound 62, (R)-(−)-3-[(R)-2-hydroxy-2-cyclopentyl-2-phenyl]ethoxy-1-{3-[4-(1-{(R)-[2-hydroxy-2-(8-hydroxy-2-oxo-1,2-dihydroquinolin-5-yl)]ethylamino}propylidene)phenoxy]propyl}-1-azabicyclo[2,2,2]octylonium bromide] | 126.7 | 7.02 ± 0.22 | more than 300 min | 0.0351 ± 0.01 |  |  |  |
| OCc1cc(C(O)CNCCCCOCCCC[N+]23CCC(CC2)C(OCC(O)(c2ccccc2)C2CCCC2)C3)ccc1O [Compound 27, (R)-(−)-3-[(R)-2-hydroxy-2-cyclopentyl-2-phenyl]ethoxy-1-[4-(4-{(R)-[2-(3-hydroxymethyl-4-hydroxy)phenyl-2-hydroxy]ethylamino}butoxy)butyl-1-azabicyclo[2,2,2]octylonium bromide] | 78.9 | 5.54 ± 0.43 | more than 300 min | 0.152 ± 0.086 |  |  |  |
| CC(Cc1ccc(OCC[N+]23CCC(CC2)[C@@H](OC[C@@](O)(c2ccccc2)C2CCCC2)C3)cc1)NC[C@H](O)c1ccc(O)c(CO)c1.[Br-] (some centres unmarked) [Compound 75] | 56.8 | 6.38 ± 0.35 | more than 300 min | 0.176 ± 0.031 |  |  |  |
| O=C1COc2c(cc(O)cc2[C@@H](O)CNCc2ccc(OCCC[N+]34CCC(CC3)[C@@H](OC[C@@](O)(c3ccccc3)C3CCCC3)C4)cc2)N1 [Compound 102] | 102.6 | 5.78 ± 0.23 | more than 300 min | 0.0371 ± 0.019 |  |  |  |
| O=CNc1cc([C@@H](O)CNCCCCOCC[N+]23CCC(CC2)[C@@H](OC[C@@](O)(c2ccccc2)C2CCCC2)C3)ccc1O [Compound 25, (R)-(−)-3-[(R)-2-hydroxy-2-cyclopentyl-2-phenyl]ethoxy-1-[2-(4-{(R)-[2-hydroxy-2-(3-formamido-4-hydroxy)phenyl]ethylamino}butoxy)ethyl]-1-azabicyclo[2,2,2]octylonium bromide] | 30.8 | 6.86 ± 0.22 | more than 300 min | 0.822 ± 0.27 |  |  |  |
| O=CNc1cc(C(O)CNCCOCCOCC[N+]23CCC(CC2)C(OCC(O)(c2ccccc2)C2CCCC2)C3)ccc1O [Compound 46, (R)-(−)-3-[(R)-2-hydroxy-2-cyclopentyl-2-phenyl]ethoxy-1-{2-[2-(2-{(R)-[2-hydroxy-2-(3-formamido-4-hydroxy)phenyl]ethylamino}ethoxy)ethoxy]ethyl}-1-azabicyclo[2,2,2]octylonium chloride] | 68.9 | 6.75 ± 0.33 | more than 300 min | 0.136 ± 0.068 |  |  |  |
| COC1CCC([C@@](O)(CO[C@H]2C[N+]3(CCC(=O)Nc4ccc(CNC[C@H](O)c5ccc(O)c(NC=O)c5)cc4)CCC2CC3)c2ccccc2)C1.[Br-] (some centres unmarked) [Compound 141] | 135.9 | 5.88 ± 0.26 | more than 300 min | 0.0363 ± 0.0095 |  |  |  |
| O=c1ccc2c([C@@H](O)CNCc3ccc(OCCC[N+]45CCC(CC4)[C@@H](OC[C@@](O)(c4ccccc4)C4CCCC4)C5)cc3)ccc(O)c2[nH]1 [Compound 58, (R)-(−)-3-[(R)-2-hydroxy-2-cyclopentyl-2-phenyl]ethoxy-1-{3-[4-(1-{(R)-[2-hydroxy-2-(8-hydroxy-2-oxo-1,2-dihydroquinolin-5-yl)]ethylamino}methyl)phenoxy]propyl}-1-azabicyclo[2,2,2]octylonium bromide] | 89.8 | 5.56 ± 0.24 | more than 300 min | 0.0131 ± 0.0088 |  |  |  |
| CCC(NC[C@H](O)c1ccc(O)c(NC=O)c1)c1ccc(OCCC[N+]23CCC(CC2)[C@@H](OC[C@@](O)(c2ccccc2)C2CCCC2)C3)cc1.[Br-] (some centres unmarked) [Compound 97] | 56.7 | 6.36 ± 0.22 | more than 300 min | 0.0167 ± 0.0062 |  |  |  |
| O=c1ccc2c([C@@H](O)CNCCC[N+]34CCC(CC3)[C@@H](OC[C@@](O)(c3ccccc3)C3CCCC3)C4)ccc(O)c2[nH]1 [Compound 2, (R)-(−)-3-[(R)-2-hydroxy-2-cyclopentyl-2-phenyl]ethoxy-1-(3-{(R)-[2-hydroxy-2-(8-hydroxy-2-oxo-1,2-dihydroquinolin-5-yl)]ethylamino}propyl)-1-azabicyclo[2,2,2]octylonium bromide] | 7.8 |  | more than 300 min | 0.756 ± 0.26 |  |  |  |
| O=C(CC[N+]12CCC(CC1)[C@@H](OC[C@@](O)(c1ccccc1)C1CCCC1)C2)Nc1ccc(CNC[C@H](O)c2cc(O)cc3c2OCC(=O)N3)cc1 [Compound 116, (R)-(−)-3-[(R)-2-hydroxy-2-cyclopentyl-2-phenyl]ethoxy-1-{3-[4-({(R)-[2-hydroxy-2-(6-hydroxy-2H-1,4-benzoxazin-3(4H)-one-8-yl)]ethylamino}methyl)anilino]oxopropyl}-1-azabicyclo[2,2,2]octylonium bromide] | 68.8 | 6.28 ± 0.56 | more than 300 min | 0.0267 ± 0.0072 |  |  |  |
